From ChEMBL document CHEMBL3396966, “In vitro studies of antimicrobial activity of Gly-His-Lys conjugates as potential and promising candidates for therapeutics in skin and tissue infections” (2015)
Converted amounts (≈) assume the structure as drawn. The source made the active and inactive calls. The rule behind the calls is not given here. Non-standard residues stand in square brackets, D forms with d. Residues, ends and D or L forms follow the SMILES beside them. ξ: configuration not given here. *: point of attachment. Stearoyl = CCCCCCCCCCCCCCCCCC(=O)*; Palmitoyl = CCCCCCCCCCCCCCCC(=O)*; Lauroyl = CCCCCCCCCCCC(=O)*; ξHyp = O=C(O)C1CC(O)CN1

Legend:
[1] = tested on: Escherichia coli; test: Antimicrobial activity against Escherichia coli after 16 to 20 hrs by broth micro-dilution method; format: functional, organism-based
[2] = tested on: Pseudomonas aeruginosa; test: Bacteriostatic activity against Pseudomonas aeruginosa PCM 2562 (ATCC9027) after 16 to 20 hrs by broth micro-dilution method; format: functional, organism-based
[3] = tested on: Escherichia coli; test: Bactericidal activity against Escherichia coli up to 18 hrs by time-kill assay; format: functional, organism-based
[4] = tested on: Staphylococcus aureus; test: Bactericidal activity against Staphylococcus aureus at 8 times MIC after 18 hrs by time-kill assay; format: functional, organism-based
[5] = tested on: Staphylococcus aureus; test: Bacteriostatic activity against Staphylococcus aureus after 16 to 20 hrs by broth micro-dilution method; format: functional, organism-based
[6] = tested on: Pseudomonas aeruginosa; test: Bactericidal activity against Pseudomonas aeruginosa PCM 2562 (ATCC9027) after 16 to 20 hrs by broth micro-dilution method; format: functional, organism-based
[7] = tested on: Staphylococcus aureus; test: Bactericidal activity against Staphylococcus aureus after 16 to 20 hrs by broth micro-dilution method; format: functional, organism-based
[8] = tested on: Pseudomonas aeruginosa; test: Bactericidal activity against Pseudomonas aeruginosa PCM 2562 (ATCC9027) after 18 hrs by broth micro-dilution method; format: functional, organism-based
[9] = tested on: Pseudomonas aeruginosa; test: Bactericidal activity against Pseudomonas aeruginosa PCM 2562 (ATCC9027) after 4 hrs by broth micro-dilution method; format: functional, organism-based
[10] = tested on: Staphylococcus aureus; test: Bactericidal activity against Staphylococcus aureus at 4 times MIC up to 18 hrs by time-kill assay
[11] = tested on: Staphylococcus aureus; test: Bactericidal activity against Staphylococcus aureus up to 4 times MIC up to 18 hrs by time-kill assay; format: functional, organism-based
[12] = tested on: Candida albicans; test: Fungicidal activity against Candida albicans at 4 to 8 times MIC after 4 hrs by time-kill assay; format: functional, organism-based
[13] = tested on: Candida albicans; test: Fungicidal activity against Candida albicans at 250 ug/ml by time-kill assay; format: functional, organism-based
[14] = tested on: Candida albicans; test: Fungicidal activity against Candida albicans at 8 times MIC after 4 hrs by time-kill assay; format: functional, organism-based
[15] = tested on: Staphylococcus aureus; test: Antimicrobial activity against Staphylococcus aureus after 16 to 20 hrs by broth micro-dilution method; format: functional, organism-based
[16] = tested on: Staphylococcus aureus; test: Bactericidal activity against Staphylococcus aureus at 0.5 to 1 times MIC up to 18 hrs by time-kill assay; format: functional, organism-based
[17] = tested on: Staphylococcus aureus; test: Bactericidal activity against Staphylococcus aureus at 8 times MIC up to 18 hrs by time-kill assay; format: functional, organism-based
[18] = tested on: Pseudomonas aeruginosa; test: Antimicrobial activity against Pseudomonas aeruginosa PCM 2562 (ATCC9027) after 16 to 20 hrs by broth micro-dilution method; format: functional
[19] = tested on: Staphylococcus aureus; test: Antimicrobial activity against Staphylococcus aureus PCM 2054 (ATCC 25923) after 16 to 20 hrs by broth micro-dilution method; format: functional
[20] = tested on: Candida albicans; test: Fungicidal activity against Candida albicans at MIC by time-kill assay; format: functional, organism-based
[21] = tested on: Candida albicans; test: Fungicidal activity against Candida albicans at 2 times MIC by time-kill assay; format: functional, organism-based
[22] = tested on: Escherichia coli; test: Antimicrobial activity against Escherichia coli DSM11250 (PCM2560, NTCC 10538) after 16 to 20 hrs by broth micro-dilution method; format: functional
[23] = tested on: Staphylococcus aureus; test: Bactericidal activity against Staphylococcus aureus at 6 times MIC up to 18 hrs by time-kill assay; format: functional, organism-based
[24] = tested on: Escherichia coli; test: Antimicrobial activity against Escherichia coli PCM 2561 (ATCC 8739, DSM 1576) after 16 to 20 hrs by broth micro-dilution method; format: functional
[25] = tested on: Pseudomonas aeruginosa; test: Bactericidal activity against Pseudomonas aeruginosa PCM 2562 (ATCC9027) at 4 times MIC up to 18 hrs by broth micro-dilution method; format: functional, organism-based
[26] = tested on: Staphylococcus aureus; test: Antimicrobial activity against Staphylococcus aureus PCM 2602 (ATCC 6538) after 16 to 20 hrs by broth micro-dilution method; format: functional
[27] = tested on: Staphylococcus aureus; test: Bactericidal activity against Staphylococcus aureus at 100 ug/ml up to 18 hrs by time-kill assay; format: functional, organism-based
[28] = tested on: Staphylococcus aureus; test: Bactericidal activity against Staphylococcus aureus at 4 times MIC up to 18 hrs by time-kill assay; format: functional, organism-based
[29] = tested on: Staphylococcus aureus; test: Bactericidal activity against Staphylococcus aureus at 0.5 to 1 time MIC up to 18 hrs by time-kill assay; format: functional, organism-based
[30] = tested on: Staphylococcus aureus; test: Bactericidal activity against Staphylococcus aureus at 1 to 4 times MIC up to 18 hrs by time-kill assay; format: functional, organism-based
[31] = tested on: Candida albicans; test: Fungicidal activity against Candida albicans at 2 to 4 times MIC by time-kill assay; format: functional, organism-based
[32] = tested on: Candida albicans; test: Antifungal activity against Candida albicans after 16 to 20 hrs by broth micro-dilution method; format: functional, organism-based
[33] = tested on: Candida albicans; test: Fungicidal activity against Candida albicans by time-kill assay; format: functional, organism-based
[34] = Pseudomonas aeruginosa, PCM 2562 (ATCC9027)
[35] = Staphylococcus aureus, PCM 2054 (ATCC 25923)
[36] = Escherichia coli, DSM11250 (PCM2560, NTCC 10538)
[37] = Escherichia coli, PCM 2561 (ATCC 8739, DSM 1576)
[38] = Staphylococcus aureus, PCM 2602 (ATCC 6538)

CC(=O)NCC(=O)N1CC(O)CC1C(=O)N[C@H](CCCCN)C(=O)O (some centres undefined)
Activity [1]: Active

CCCCCCCCCCCC(=O)NCC(=O)N1CC(O)CC1C(=O)N[C@@H](CCCCN)C(=O)O (some centres undefined)
Activity [2]: Active
Activity [3]: Active
Activity [4]: Active
Activity [5]: Active
Activity [6]: Active
Activity [7]: Active
Activity [8]: Active
Activity [1]: Active
Activity [9]: Active

CCCCCCCCCCCC(=O)NCC(=O)N1CC(O)CC1C(=O)N[C@H](CCCCN)C(=O)O (some centres undefined)
Activity [3]: Active
Activity [10]: Active
Activity [11]: Active
Activity [1]: Active

CCCCCCCCCCCCCCCCCC(=O)NCC(=O)N1CC(O)CC1C(=O)N[C@@H](CCCCN)C(=O)O (some centres undefined)
Activity [3]: Active
Activity [12]: Active
Activity [13]: Active
Activity [11]: Active
Activity [14]: Active

CCCCCCCCCCCCCCCCCC(=O)NCC(=O)N1CC(O)CC1C(=O)N[C@H](CCCCN)C(=O)O (some centres undefined)
Activity [3]: Active

CC(=O)NCC(=O)NCC(=O)N1CC(O)CC1C(=O)N[C@@H](CCCCN)C(=O)O (some centres undefined) (Ac-GG[ξHyp]K-OH)
Activity [3]: Active

CSCC[C@H](NC(=O)C1CC(O)CN1C(=O)CN)C(=O)N[C@@H](CCCCN)C(=O)O (some centres undefined) (H-G[ξHyp]MK-OH)
Activity [15]: Active
Activity [3]: Active
Activity [1]: inactive

NCCCC[C@H](NC(=O)[C@H](Cc1cnc[nH]1)NC(=O)CN)C(=O)O (H-Gly-His-Lys-OH)
Activity [15]: Active
Activity [2]: Active
Activity [5]: Active
Activity [1]: Active

CSCC[C@H](NC(=O)CN)C(=O)N[C@@H](CCCCN)C(=O)O (H-Gly-Met-Lys-OH)
Activity [3]: Active
Activity [1]: inactive

NCCCC[C@H](NC(=O)C1CC(O)CN1C(=O)CN)C(=O)O (some centres undefined) (H-Gly-[ξHyp]-Lys-OH)
Activity [15]: Active
Activity [2]: Active
Activity [5]: Active
Activity [1]: Active

CCCCCCCCCCCC(=O)NCC(=O)NCC(=O)N1CC(O)CC1C(=O)N[C@@H](CCCCN)C(=O)O (some centres undefined) (Lauroyl-GG[ξHyp]K-OH)
Activity [3]: Active
Activity [16]: Active

CCCCCCCCCCCC(=O)NCC(=O)N1CC(O)CC1C(=O)N[C@@H](CCSC)C(=O)N[C@@H](CCCCN)C(=O)O (some centres undefined) (Lauroyl-G[ξHyp]MK-OH)
Activity [17]: Active

CCCCCCCCCCCCCCCC(=O)NCC(=O)N1CC(O)CC1C(=O)N[C@@H](CCCCN)C(N)=O (some centres undefined) (Palmitoyl-Gly-[ξHyp]-Lys-NH2)
MBC50 [18]: 1500 mg/L (≈ 2710 µM)
MBC90 [18]: 2000 mg/L (≈ 3610 µM)
MIC50 [18, 34]: 375 mg/L (≈ 677 µM)
MIC90 [18, 34]: 500 mg/L (≈ 903 µM)
MBC50 [19]: 93.7 mg/L (≈ 169 µM)
MBC90 [19]: 125 mg/L (≈ 226 µM)
MIC50 [19, 35]: 31.3 mg/L (≈ 56.5 µM)
MIC90 [19, 35]: 62.5 mg/L (≈ 113 µM)
Activity [20]: Active
Activity [21]: Active
MIC50 [22, 36]: 31.3 mg/L (≈ 56.5 µM)
MIC90 [22, 36]: 62.5 mg/L (≈ 113 µM)
Activity [23]: Active
MIC50 [24, 37]: 62.5 mg/L (≈ 113 µM)
MIC90 [24, 37]: 125 mg/L (≈ 226 µM)
Activity [25]: Active
MBC50 [26]: 93.7 mg/L (≈ 169 µM)
MBC90 [26]: 125 mg/L (≈ 226 µM)
MIC50 [26, 38]: 31.3 mg/L (≈ 56.5 µM)
MIC90 [26, 38]: 31.3 mg/L (≈ 56.5 µM)
Activity [27]: Active
Activity [28]: Active

CCCCCCCCCCCCCCCC(=O)NCC(=O)N1CC(O)CC1C(=O)N[C@@H](CCCCN)C(=O)O (some centres undefined) (Palmitoyl-Gly-[ξHyp]-Lys-OH)
Activity [3]: Active
Activity [8]: Active
Activity [29]: Active
Activity [11]: Active
Activity [30]: Active
Activity [28]: Active
Activity [9]: Active

CCCCCCCCCCCCCCCCCC(=O)NCC(=O)NCC(=O)N1CC(O)CC1C(=O)N[C@@H](CCCCN)C(=O)O (some centres undefined) (Stearoyl-GG[ξHyp]K-OH)
Activity [21]: Active
Activity [31]: Active

NC[C@H]1O[C@H](O[C@H]2[C@H](O)[C@@H](O[C@H]3O[C@H](CO)[C@@H](O)[C@H](N)[C@H]3O)[C@H](N)C[C@@H]2N)[C@H](O)[C@@H](O)[C@@H]1O [KANAMYCIN]
MBC50 [19]: 3.9 mg/L (≈ 8.05 µM)
MBC90 [19]: 7.8 mg/L (≈ 16.1 µM)
MBC [19, 35]: 11.7 mg/L (≈ 24.1 µM)
MIC [19, 35]: 2.9 mg/L (≈ 5.99 µM)
MIC50 [19, 35]: 2.9 mg/L (≈ 5.99 µM)
MIC90 [19, 35]: 5.8 mg/L (≈ 12 µM)
MBC50 [22]: 15.6 mg/L (≈ 32.2 µM)
MBC90 [22]: 31.3 mg/L (≈ 64.6 µM)
MBC [22, 36]: 7.8 mg/L (≈ 16.1 µM)
MIC [22, 36]: 3.9 mg/L (≈ 8.05 µM)
MIC50 [22, 36]: 7.8 mg/L (≈ 16.1 µM)
MIC90 [22, 36]: 15.6 mg/L (≈ 32.2 µM)
MBC50 [24]: 15.6 mg/L (≈ 32.2 µM)
MBC90 [24]: 31.3 mg/L (≈ 64.6 µM)
MBC [24, 37]: 7.8 mg/L (≈ 16.1 µM)
MIC [24, 37]: 3.9 mg/L (≈ 8.05 µM)
MIC50 [24, 37]: 7.8 mg/L (≈ 16.1 µM)
MIC90 [24, 37]: 15.6 mg/L (≈ 32.2 µM)
MBC50 [26]: 3.9 mg/L (≈ 8.05 µM)
MBC90 [26]: 7.8 mg/L (≈ 16.1 µM)
MBC [26, 38]: 11.7 mg/L (≈ 24.1 µM)
MIC [26, 38]: 2.9 mg/L (≈ 5.99 µM)
MIC50 [26, 38]: 2.9 mg/L (≈ 5.99 µM)
MIC90 [26, 38]: 5.8 mg/L (≈ 12 µM)

CN(C)[C@@H]1C(O)=C(C(N)=O)C(=O)[C@@]2(O)C(O)=C3C(=O)c4c(O)cccc4[C@@](C)(O)[C@H]3C[C@@H]12 [TETRACYCLINE]
MBC50 [18]: 31.3 mg/L (≈ 70.4 µM)
MBC90 [18]: 62.5 mg/L (≈ 141 µM)
MBC [18, 34]: 31.3 mg/L (≈ 70.4 µM)
MIC [18, 34]: 3.9 mg/L (≈ 8.78 µM)
MIC50 [18, 34]: 3.91 mg/L (≈ 8.8 µM)
MIC90 [18, 34]: 7.81 mg/L (≈ 17.6 µM)

NYSTATIN
MFC [32]: 7.8 mg/L
MFC50 [32]: 1.9 mg/L
MFC90 [32]: 7.8 mg/L
MIC50 [32]: 1.9 mg/L
MIC90 [32]: 3.9 mg/L
Activity [33]: Active
